The results in this text go back to patent publication US20260001888A1, “PYRAZOLOPYRIMIDINE PDE9 INHIBITORS” (Merck Sharp & Dohme LLC, priority 2018, published 2026).

Sequence of Human PDE9 (PDE9A2) (O76083 other isoform, or with tags, fused parts or gaps): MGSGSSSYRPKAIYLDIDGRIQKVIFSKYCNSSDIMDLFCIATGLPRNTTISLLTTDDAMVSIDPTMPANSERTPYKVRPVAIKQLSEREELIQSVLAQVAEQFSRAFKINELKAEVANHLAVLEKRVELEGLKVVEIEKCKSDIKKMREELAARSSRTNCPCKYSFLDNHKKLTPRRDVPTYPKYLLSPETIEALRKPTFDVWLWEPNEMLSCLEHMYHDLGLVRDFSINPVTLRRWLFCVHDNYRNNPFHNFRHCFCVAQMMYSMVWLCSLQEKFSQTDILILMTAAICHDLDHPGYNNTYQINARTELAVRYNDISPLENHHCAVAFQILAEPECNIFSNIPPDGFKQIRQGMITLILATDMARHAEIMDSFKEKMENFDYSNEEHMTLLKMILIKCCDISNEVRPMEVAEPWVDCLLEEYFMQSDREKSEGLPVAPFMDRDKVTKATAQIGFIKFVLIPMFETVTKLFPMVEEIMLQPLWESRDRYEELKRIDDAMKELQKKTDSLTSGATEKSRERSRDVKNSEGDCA

This assay concerns the target Human PDE9 (PDE9A2) (Homo sapiens (Human), UniProt O76083). The experiment in a line: PDE9 IMAP fluorescence polarization (FP) inhibition assay. In kind it is biochemical. Conditions: apparent inhibition constant; human PDE9A2, FAM-cGMP substrate 50 nM, room temperature. The procedure, abridged:
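N-terminal GST-tagged full-length PDE9A2 membrane prep (0.5 ng/ml final) preincubated 30 min with compound at room temperature, then 50 nM FAM-cGMP added for 60 min; IMAP binding reagent stops reaction, FP read after 1 h. Controls: known PDE9 inhibitor (100%), 1% DMSO (0%). KI from four-parameter fit.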
Regarding `CC(Cc1nc2c(c(C#N)nn2C(C)c2ccc(C(F)(F)F)nc2)c(=O)[nH]1)c1ncccn1` (single isomer, unassigned) [Example 85, 4-oxo-6-(2-(pyrimidin-2-yl)propyl)-1-(1-(6-(trifluoromethyl)pyridin-3-yl)ethyl)-4,5-dihydro-1H-pyrazolo[3,4-d]pyrimidine-3-carbonitrile], the Ki was 1.17 nM. `CC(c1ccc(C(F)(F)F)nc1)n1nc(C#N)c2c(=O)[nH]c(CCc3ncccn3)nc21` (single isomer, unassigned) [Example 80, 4-oxo-6-(2-(pyrimidin-2-yl)ethyl)-1-(1-(6-(trifluoromethyl)pyridin-3-yl)ethyl)-4,5-dihydro-1H-pyrazolo[3,4-d]pyrimidine-3-carbonitrile]: the Ki was 120 nM. With `CCC(c1ncc(F)cn1)N(C)c1nc2c(c(C#N)nn2C(C)C2CCOCC2)c(=O)[nH]1` (single isomer, unassigned) [Example 40, 6-[1-(5-fluoropyrimidin-2-yl)propyl-methyl-amino]-4-oxo-1-(1-tetrahydropyran-4-ylethyl)-5H-pyrazolo[3,4-d]pyrimidine-3-carbonitrile] the figure was 33.2 nM. With `CCC(c1ncc(F)cn1)N(C)c1nc2c(c(C#N)nn2C(C)c2ccc(C(F)(F)F)nc2)c(=O)[nH]1` (single isomer, unassigned) [Example 76, 6-((1-(5-fluoropyrimidin-2-yl)propyl)(methyl)amino)-4-oxo-1-(1-(6-(trifluoromethyl)pyridin-3-yl)ethyl)-4,5-dihydro-1H-pyrazolo[3,4-d]pyrimidine-3-carbonitrile] the figure was 55.1 nM. In the case of `CCC(c1ncccn1)N(C)c1nc2c(c(C#N)nn2C(C)c2ccc(C3CC3)nc2)c(=O)[nH]1` (single isomer, unassigned) [Example 1, 1-(1-(6-Cyclopropylpyridin-3-yl)ethyl)-6-(methyl(1-(pyrimidin-2-yl)propyl)amino)-4-oxo-4,5-dihydro-1H-pyrazolo[3,4-d]pyrimidine-3-carbonitrile], the Ki was found to be 3.2 nM. With `CCC(Cc1nc2c(c(C#N)nn2C(C)c2ccc(C(F)(F)F)nc2)c(=O)[nH]1)c1ncccn1` (single isomer, unassigned) [Example 90, 4-oxo-6-(2-(pyrimidin-2-yl)butyl)-1-(1-(6-(trifluoromethyl)pyridin-3-yl)ethyl)-4,5-dihydro-1H-pyrazolo[3,4-d]pyrimidine-3-carbonitrile] the figure was 28 nM; with `CCC(c1ccc(F)cn1)N(C)c1nc2c(c(C#N)nn2C(C)c2ccc(C(F)(F)F)nc2)c(=O)[nH]1` (single isomer, unassigned) [Example 33, 6-[1-(5-fluoro-2-pyridyl)propyl-methyl-amino]-4-oxo-1-[1-[6-(trifluoromethyl)-3-pyridyl]ethyl]-5H-pyrazolo[3,4-d]pyrimidine-3-carbonitrile], 0.59 nM; with `CCC(Nc1nc2c(c(C#N)nn2C(C)c2ccc(C(F)(F)F)nc2)c(=O)[nH]1)c1ncccn1` (single isomer, unassigned) [Example 71, 4-Oxo-6-((1-(pyrimidin-2-yl)propyl)amino)-1-(1-(6-(trifluoromethyl)pyridin-3-yl)ethyl)-4,5-dihydro-1H-pyrazolo[3,4-d]pyrimidine-3-carbonitrile], 11.9 nM.

As to `CC(c1ccc(C(F)(F)F)nc1)n1nc(C#N)c2c(=O)[nH]c(N(C)C(c3ncccn3)C3CCC3)nc21` (single isomer, unassigned) [Example 30, 6-[[cyclobutyl(pyrimidin-2-yl)methyl]-methyl-amino]-4-oxo-1-[1-[6-(trifluoromethyl)-3-pyridyl]ethyl]-5H-pyrazolo[3,4-a]pyrimidine-3-carbonitrile], the Ki came to 16.4 nM. In the case of `CC(Cc1nc2c(c(C#N)nn2C(C)c2ccc(C(F)(F)F)nc2)c(=O)[nH]1)c1ncccn1` (single isomer, unassigned) [Example 84, 4-oxo-6-(2-(pyrimidin-2-yl)propyl)-1-(1-(6-(trifluoromethyl)pyridin-3-yl)ethyl)-4,5-dihydro-1H-pyrazolo[3,4-d]pyrimidine-3-carbonitrile], the Ki stood at 111 nM. The value for `CCC(c1ncccn1)N(C)c1nc2c(c(C#N)nn2C(C)c2ccc(C(F)(F)F)cc2)c(=O)[nH]1` (single isomer, unassigned) [Example 16, 6-[methyl(1-pyrimidin-2-ylpropyl)amino]-4-oxo-1-[1-[4-(trifluoromethyl)phenyl]ethyl]-5H-pyrazolo[3,4-d]pyrimidine-3-carbonitrile] was 11.1 nM.

Take `CC(C)C(c1ncccn1)N(C)c1nc2c(c(C#N)nn2C(C)c2ccc(C(F)(F)F)nc2)c(=O)[nH]1` (single isomer, unassigned) [Example 22, 6-[methyl-(2-methyl-1-pyrimidin-2-yl-propyl)amino]-4-oxo-1-[1-[6-(trifluoromethyl)-3-pyridyl]ethyl]-5H-pyrazolo[3,4-d]pyrimidine-3-carbonitrile]: the Ki turned out to be 6.5 nM.
